Where two headings read alike, the source gives them in different places.

Common to all, as to format: cell-based
One experiment has as its target T1, NR2F6 (Homo sapiens, UniProt P10588).
T1 construct: expressed in transfected cells; also transient transfection
T1 sequence (P10588 1-404): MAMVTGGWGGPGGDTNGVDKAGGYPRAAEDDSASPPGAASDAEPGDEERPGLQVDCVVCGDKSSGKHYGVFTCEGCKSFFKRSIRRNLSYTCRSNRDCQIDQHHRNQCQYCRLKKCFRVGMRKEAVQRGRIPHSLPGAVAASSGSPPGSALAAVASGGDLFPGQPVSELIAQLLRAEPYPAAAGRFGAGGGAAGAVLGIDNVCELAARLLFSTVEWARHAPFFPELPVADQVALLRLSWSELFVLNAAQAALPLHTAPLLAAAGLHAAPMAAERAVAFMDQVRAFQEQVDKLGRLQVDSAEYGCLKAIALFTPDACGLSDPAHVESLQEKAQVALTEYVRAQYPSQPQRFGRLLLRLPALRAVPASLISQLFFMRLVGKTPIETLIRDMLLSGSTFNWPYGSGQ
The experiment in a line: NR2F6 agonist screening, Firefly signal cmpd/DMSO.

Experiment [1] concerns the target T2, ERα (Homo sapiens, UniProt P03372).
T2 construct: expressed in transfected cells
T2 sequence (P03372 1-595): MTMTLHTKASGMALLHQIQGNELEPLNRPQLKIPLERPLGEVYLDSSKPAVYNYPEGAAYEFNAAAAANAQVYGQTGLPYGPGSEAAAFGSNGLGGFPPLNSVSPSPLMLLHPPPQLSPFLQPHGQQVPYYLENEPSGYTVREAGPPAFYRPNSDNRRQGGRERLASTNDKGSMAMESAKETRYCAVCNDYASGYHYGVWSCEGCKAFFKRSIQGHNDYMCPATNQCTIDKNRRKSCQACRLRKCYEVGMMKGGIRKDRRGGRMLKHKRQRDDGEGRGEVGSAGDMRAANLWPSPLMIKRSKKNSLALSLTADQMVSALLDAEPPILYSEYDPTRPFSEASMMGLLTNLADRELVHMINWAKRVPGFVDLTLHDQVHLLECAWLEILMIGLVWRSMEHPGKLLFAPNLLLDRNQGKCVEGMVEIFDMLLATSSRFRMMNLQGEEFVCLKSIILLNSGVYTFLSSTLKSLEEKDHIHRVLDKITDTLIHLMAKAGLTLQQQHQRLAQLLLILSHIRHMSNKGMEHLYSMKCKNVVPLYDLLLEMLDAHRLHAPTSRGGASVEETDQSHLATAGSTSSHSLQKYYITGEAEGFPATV
The experiment in a line: Counterscreening, Firefly signal with ERα transient transfection (Firefly_ERa). Particulars: 10 uM. The protocol: The methodology for screening candidate compounds as NR2F6 agonists was as follows: For primary screening, hit criteria was ACT %>DMSO control+5*SD (DSO control) at 10 μM, or any compound with S/B>2. For rescreening, hit criteria was ACT %>DMSO control+3*SD (DSO control) in each replicate at 10 μM. For counterscreening, hit criteria was mean ACT<DMSO control+3*SD (DMSO control) with ERα transient transfection in duplicate at 10 μM.
(A counterscreen serves to expose hits that act by an unwanted route or on another target.)

The next experiment concerns Renilla. The experiment in a line: Renilla signal in NR2F6 agonist screening, cmpd/DMSO. Particulars: Renilla, read-out: Renilla F4, cmpd/DMSO (mean).
The test system of another experiment is Renilla_ERa. The experiment in a line: Renilla signal in ERα counterscreen (Renilla_ERa). Particulars: read-out: Renilla ERalpha transient, cmpd/DMSO (mean).
Experiment [2] concerns the target T2, ERα. The experiment in a line: Counterscreening, Firefly signal with ERα transient transfection (Firefly_ERa).

Take `O=c1c(Cl)c(Cl)cnn1-c1ccccc1` [Compound 45]: the “Firefly F4, cmpd/DMSO (mean)” value on NR2F6 (2 uM, clone F4) was found to be 3.2; at NR2F6 (10 uM, clone F4), 1.2; on NR2F6 (40 uM, clone F4) it was 0.7. Moreover, the “Firefly ERalpha transient, cmpd/DMSO (mean)” value is 1.6 on ERα [1], 1.8 at ERα [2] (2 uM) and 0.6 at ERα [2] (40 uM). Further, the fold induction at 2 µM in the experiment on Renilla (clone F4) and in the experiment with Renilla_ERa was 1.6 in each case. The fold induction at 10 µM with Renilla (clone F4) and in the experiment on Renilla_ERa was 0.8 each time. For the same molecule, the fold induction at 40 µM with Renilla (clone F4) and with Renilla_ERa was 0.2 throughout.

In the case of `O=c1cccc2n1CC1CC2CN(c2nc(Cl)nc(NCCN3CCOCC3)n2)C1` (stereo not drawn) [Compound 27], the “Firefly F4, cmpd/DMSO (mean)” value stood at 1.0 on NR2F6 (2 uM, clone F4); 1.0 at NR2F6 (10 uM, clone F4); 1.0 on NR2F6 (40 uM, clone F4). For the same molecule, the “Firefly ERalpha transient, cmpd/DMSO (mean)” value at ERα [1], at ERα [2] (2 uM) and on ERα [2] (40 uM) was 1.2 each time. Besides, the fold induction at 2 µM was found to be 0.9 in the experiment with Renilla (clone F4) and 1.1 with Renilla_ERa. Besides, the fold induction at 10 µM was 0.9 in the experiment on Renilla (clone F4) and 1.1 with Renilla_ERa. Moreover, the figures for the fold induction at 40 µM in the experiment on Renilla (clone F4) and with Renilla_ERa were 0.8 and 1.2, respectively.

For the molecule `CCOC(=O)c1cnc2c(Cl)cc(Cl)cc2c1NCCCN(C)C` [Compound Z35], the “Firefly F4, cmpd/DMSO (mean)” value is 1.9 on NR2F6 (2 uM, clone F4); 1.5 at NR2F6 (10 uM, clone F4); 1.2 on NR2F6 (40 uM, clone F4). The “Firefly ERalpha transient, cmpd/DMSO (mean)” value on ERα [1] was determined as 2.2; at ERα [2] (2 uM) it was 2.6; at ERα [2] (40 uM), 7.2. Also, the fold induction at 2 µM in the experiment with Renilla (clone F4) and with Renilla_ERa was 1.1 throughout. The figures for the fold induction at 10 µM in the experiment with Renilla (clone F4) and with Renilla_ERa were 2 and 1.3, respectively. Also, the fold induction at 40 µM in the experiment with Renilla (clone F4) turned out to be 0.7; in the experiment with Renilla_ERa, 0.9.

Take `Cc1ccc(NC(=O)c2noc3c2CC(C)(C)CC3)cc1C` [Compound Z1]: the “Firefly F4, cmpd/DMSO (mean)” value at NR2F6 (Table 15, 2 uM) is listed as 1.9; at NR2F6 (Table 15, 10 uM), 1.8; at NR2F6 (Table 15, 40 uM) it was 0.8. Further, the “Firefly ERalpha transient, cmpd/DMSO (mean)” value on ERα [1] (Table 15) came out at 2.2; on ERα [2] (Table 15, 2 uM), 2.4; on ERα [2] (Table 15, 40 uM) it was 0.9. Also, the fold induction at 2 µM came to 1.3 in the experiment with Renilla (Table 15) and 1.1 with Renilla_ERa (Table 15). The fold induction at 10 µM in the experiment on Renilla (Table 15) is 1.6; in the experiment on Renilla_ERa (Table 15), 1. The figures for the fold induction at 40 µM in the experiment with Renilla (Table 15) and in the experiment on Renilla_ERa (Table 15) were 0.8 and 0.7, respectively.

For `CCOC(=O)c1cnc2c(C)cc(C)cc2c1N1CCC(C)CC1` [Compound Z76], the “Firefly F4, cmpd/DMSO (mean)” value on NR2F6 (Table 15, 2 uM) is reported as 0.8; at NR2F6 (Table 15, 10 uM) it was 1.8; on NR2F6 (Table 15, 40 uM), 0.8. Moreover, the “Firefly ERalpha transient, cmpd/DMSO (mean)” value at ERα [1] (Table 15) stood at 1.9; at ERα [2] (Table 15, 2 uM), 1.3; on ERα [2] (Table 15, 40 uM) it was 0.7. The fold induction at 2 µM was found to be 1 with Renilla (Table 15) and 1.1 with Renilla_ERa (Table 15). Besides, the fold induction at 10 µM with Renilla (Table 15) and in the experiment on Renilla_ERa (Table 15) was 0.8 each time. In addition, the results for the fold induction at 40 µM in the experiment on Renilla (Table 15) and with Renilla_ERa (Table 15) were 0.5 and 0.4, respectively.

As for `O=c1cccc2n1CC1CC2CN(c2nc(NCCC3=CCCCC3)nc(N3CCCC3)n2)C1` (stereo not drawn) [Compound 32], the “Firefly F4, cmpd/DMSO (mean)” value is on record as 0.8 on NR2F6 (2 uM, clone F4); 1.3 on NR2F6 (10 uM, clone F4); 0.8 at NR2F6 (40 uM, clone F4). Moreover, the “Firefly ERalpha transient, cmpd/DMSO (mean)” value at ERα [1] was 1.2; on ERα [2] (2 uM) it was 1.2; on ERα [2] (40 uM) it was 0.7. Besides, the fold induction at 2 µM with Renilla (clone F4) and with Renilla_ERa was 1.2 in each case. For the same molecule, the fold induction at 10 µM with Renilla (clone F4) worked out at 1.4; with Renilla_ERa, 1.3. The values for the fold induction at 40 µM in the experiment with Renilla (clone F4) and in the experiment with Renilla_ERa were 1 and 1.1, respectively.

For the origin of these results see US11377442B2, “Small molecule agonists and antagonists of NR2F6 activity” (ZANDER THERAPEUTICS, INC., priority 2016, dated 2022).
